Experimental findings from US11965006B2, “Antimicrobial and anti-cancer therapy” (UNIVERSITY OF PITTSBURGH—OF THE COMMONWEALTH SYSTEM OF …, priority 2016, dated 2024) are described below.

Data set [1] is described as follows: In vivo pulmonary toxicity. The arrangement: species or system mouse. The method, then: Pulmonary toxicity was tested in mouse lung.
Data set [2] relates to Hep2 epithelial cells. Briefly: Hep2 cytopathology in RSV plaque assay. The class given is cell-based. As to conditions: 32 μM. The procedure:
Using a standard plaque assay, RSV replication was quantified in permissive Hep2 epithelial cells in the presence or absence of various AMPs. RSV plaque assays were used to determine the minimum dose required to induce Hep2 cytopathology and maximum anti-viral effects. Experimental controls included Hep2 cells+/−RSV and Hep-2 cells with AMP only.
Hep2 control cells without the AMP were also plated. Both plates were infected with the same dilution of A2 RSV virus. There is extensive sloughing of cells treated with the peptide (top plate) as compared to cells which were not (bottom plate), FIG. 18.

Data set [3] has as its system Enterococcus faecium MDR clinical isolates. The class given is cell-based. The procedure: (§1) The bactericidal activities were examined using standard bacterial culture media (MHB) without the inclusion of human blood.
(§2) Tables 3 and 4 provide the MIC data for the tested AMPs against a variety of infectious species. The following strains were tested: Enterococcus faecium MDR clinical isolates Ef 25153 and Ef 26125; methicillin-resistant Staphylococcus aureus (MRSA) clinical isolates USA300 and 150-10; Klebsiella pneumonia MDR clinical isolates C3, C5, A5, D7 and E6; and Pseudomonas aeruginosa MDR clinical isolates PA 82-8 and PA 129-5. […] Table 5 provides the data for the D-amino acid substituted AMPs and their bactericidal activities against various Klebsiella pneumonia multi-drug resistant (MDR) clinical isolates. All odd number Kp bacteria (isolated prior to colistin treatment; colistin sensitive) are paired with the corresponding even number Kp bacteria (isolated after colistin treatment; colistin resistant) from the same patient. O.D. readings represent the bacterial growth with a background reading of about 0.049+/−0.003.

Data set [4] relates to Klebsiella pneumonia MDR clinical isolates. Type of data set: cell-based. The procedure: as §1, §2
Data set [5] deals with Pseudomonas aeruginosa MDR clinical isolates. The class given is cell-based. The procedure: as §1, §2
The subject of data set [6] is methicillin-resistant Staphylococcus aureus (MRSA) clinical isolates. Type of data set: cell-based. The method, then: as §1, §2
Data set [7] concerns P. aeruginosa lipopolysaccharide (LPS)-induced secretion of tumor necrosis factor (TNF) in Raw (264.7) Cells. Nature of the data set: Neutralization of LPS-induced TNF secretion. The class given is cell-based. The settings on record: 1 μg/ml LPS. The method, then: Anti-inflammatory activity is based on the determination of cytokine stimulation of major inflammatory (e.g. TNF) or anti-inflammatory (e.g., IL-10) cytokines. For in vitro studies, TNF is measured using culture medium from LPS-stimulated macrophage cultures in the presence or absence of peptide treatment. For in vivo studies, cytokine levels in bronchoalveolar lavage (BAL) fluid were quantified using the mouse cytokine multiplex panel assay (Milliplex; Millipore, Billerica, Mass.). The expressions of cytokines were analyzed using the Luminex assay system, based on manufacturer's instructions and our previous publication. Standard recombinant protein solution was used to generate a standard curve for each analyzed protein. Absolute cytokine concentrations were calculated from the standard curve for each cytokine.
A high dosage (1 μg/ml) of LPS was used to stimulate the TNF secretion in raw cells.

Data set [8] concerns P. aeruginosa. Briefly: In vivo respiratory P. aeruginosa infection. The settings on record: high dosage bacterial inoculation, FIG. 16.
The nature of data set [9]: In vivo toxicity / maximum tolerated dose. The arrangement: species or system Mice (strain: Swiss Webster). The method, then: The modified AMPs show a lower toxicity and higher maximum tolerated dosage (MTD) than WLBU2 (SEQ ID No. 26). The MTD for WLBU2 (SEQ ID No. 26) is 15 mg/kg, for Colistin is 10 mg/kg, and SEQ ID No. 15 is 30 mg/kg (FIG. 14A).
Mice (strain: Swiss Webster) were injected with SEQ ID No. 15 peptides intravenously (i.v.) or intraperitoneally (i.p.) at the concentrations indicated. […] Thus, the estimated maximum tolerated dose (MTD) is around 40-50 mpk (i.v.). On a similar setting of testing other AMPS, the MTD for WLBU2 is 15 mpk (i.v.) and 10 mpk (i.v.) for colistin.

Data set [10] has as its system primary Human bronchial epithelial (HBE) cells. Briefly: Toxicity to primary cells, tetrazolium-based viability assay. As to conditions: treated 2 h. The class given is cell-based. The procedure:
Anti-cancer activity of SEQ ID No. 26 and its D-amino acid modified enantiomer, SEQ ID. No. 34. SEQ ID. No. 34 was compared to SEQ ID No. 26 for selective anti-cancer activities using cancer cell lines of the respiratory system. See FIG. 22A for H460 (large cell lung cancer) and Calu-1 (non-small cell lung cancer) and FIG. 22B for primary Human bronchial epithelial (HBE) cells. The cells were grown to 80% confluence and then treated with each AMP for 2 h. Percent viability was examined using a tetrazolium-based assay assessing the mitochondrial integrity. […] No. 34; however SEQ ID. […] No. 34. Therefore, SEQ ID. […] No. 26.

The subject of data set [11] is S.A. ATCC49775. Nature of the data set: Antimicrobial activity of SPLUNC1 proteins (FIG. 2A). The class given is cell-based. The settings on record: S.A. ATCC49775, FIG. 2A. From the text: (§3) The AMPs disclosed herein were derived from the naturally secreted antimicrobial protein SPLUNC1. […] FIG. 2C) illustrates the alpha helical structure of alpha4 (A4), the 30 residue sequence used as the template to design the disclosed AMPs listed in Table 2.

For data set [12], the system named is MRSA USA300. Nature of the data set: Antimicrobial activity of SPLUNC1 proteins (FIG. 2B). The class given is cell-based. The settings on record: MRSA USA300, FIG. 2B.
Source text: as §3

Setting [13] is: methicillin-resistant clinical isolates, 18 h.

Entries after “also recorded” stand apart in the source; their conditions may differ. Where two headings read alike, the source gives them in different places. Square brackets hold non-standard residues; d marks the D form. Ends that are not written are not given here. Peptide text beside a SMILES is read from it.

`CC(C)[C@@H](NC(=O)[C@H](Cc1c[nH]c2ccccc12)NC(=O)[C@H](CCCNC(=N)N)NC(=O)[C@H](CCCNC(=N)N)NC(=O)[C@H](NC(=O)[C@H](NC(=O)[C@H](CCCNC(=N)N)NC(=O)[C@H](NC(=O)[C@H](NC(=O)[C@H](CCCNC(=N)N)NC(=O)[C@H](CCCNC(=N)N)NC(=O)[C@H](Cc1c[nH]c2ccccc12)NC(=O)[C@H](NC(=O)[C@H](CCCNC(=N)N)NC(=O)[C@H](CCCNC(=N)N)NC(=O)[C@H](NC(=O)[C@H](CCCNC(=N)N)NC(=O)[C@H](CCCNC(=N)N)NC(=O)[C@H](NC(=O)[C@H](Cc1c[nH]c2ccccc12)NC(=O)[C@H](CCCNC(=N)N)NC(=O)[C@@H](N)CCCNC(=N)N)C(C)C)C(C)C)C(C)C)C(C)C)C(C)C)C(C)C)C(C)C)C(=O)N[C@@H](CCCNC(=N)N)C(=O)N[C@@H](CCCNC(=N)N)C(=O)O` [SEQ ID No. 34] (H-RRW[dV]RR[dV]RR[dV]WRR[dV][dV]R[dV][dV]RRW[dV]RR-OH; N-terminus and C-terminus assumed): the “recruitment of leukocytes (a measure of inflammation)” value in data set [1] (at four times the concentration of SEQ ID No. 26) was “significantly lower than SEQ ID No. 26”. In addition, the “behaviour of mice after treatment” value in [1] (response to the hand grab) was “more active and responsive”. The “cytopathology in Hep2 cells” value in data set [2] was “caused cytopathology”.

Turning to “LKKWWKTVKGLLGGLLGKVTSVIK [SEQ ID No. 14]”, in [3] (MDR clinical isolates, 18 h), the “MIC Ef 25153” value was less than 2 µM and the “MIC Ef 26125” value was less than 2 µM. Besides, in data set [4] (18 h), the “MIC A5” value was more than 4 µM, the “MIC C3” value is less than 2 µM, the “MIC C5” value amounted to 4 µM and the “MIC D7” value is less than 2 µM. In addition, in [4] (18 h), the “MIC E6” value was less than 2 µM. Also, in [5] (MDR clinical isolates, 18 h), the “MIC PA82 82-8” value is less than 2 µM and the “MIC PA 129-5” value is less than 2 µM. Further, in data set [6] (setting [13]), the “MIC MRSA 150-10” value was less than 2 µM and the “MIC MRSA USA300” value was less than 2 µM. Besides, the “neutralizing LPS-induced TNF secretion” value in data set [7] was “good activity; also recorded: Display Neutralizing Activities”. Also, the “antimicrobial activity against respiratory P. aeruginosa infection” value in [8] was “excellent antimicrobial activity”.

Turning to “RRWVRRVRRVWRRVVRVVRRWVRR [SEQ ID No. 26, reference compound]”, the “MIC Ef 25153” value in data set [3] (isolate Ef 25153, Table 3) is less than 4 µM. Moreover, the “MIC Ef 26125” value in data set [3] (isolate Ef 26125, Table 3) was less than 4 µM. Besides, the “MIC A5” value in [4] (isolate A5, Table 3) is more than 8 µM. Besides, in data set [4] (isolate C3, Table 3), the “MIC C3” value is 16 µM. For the same molecule, the “MIC C5” value in data set [4] (isolate C5, Table 3) amounted to 16 µM. Besides, in [4] (isolate D7, Table 3), the “MIC D7” value was less than 4 µM. In data set [4] (isolate E6, Table 3), the “MIC E6” value was less than 4 µM. Besides, the “MIC PA 82-8” value in data set [5] (isolate PA 82-8, Table 3) amounted to 4 µM. Besides, the “MIC PA 129-5” value in data set [5] (isolate PA 129-5, Table 3) is less than 4 µM. The “MIC MRSA 150-10” value in data set [6] (isolate 150-10, Table 3) was determined as 8 µM. The “MIC MRSA USA300” value in data set [6] (isolate USA300, Table 3) is less than 4 µM. Besides, the MTD in data set [9] (Swiss Webster, mouse, in vivo, FIG. 14A, read-out: maximum tolerated dosage (MTD)) was found to be 15 mg/kg. For the same molecule, in [9] (i.v., Swiss Webster mice), the “maximum tolerated dose (MTD)” value was found to be 15 mpk. The “cytopathology in Hep2 cells” value in data set [2] was “caused cytopathology”. Moreover, in data set [10], the “toxicity to primary HBE cells” value is on record as “toxic to primary HBE cells”.

B1: SPLUNC1-wt: wildtype version of SPLUNC1, a naturally secreted antimicrobial protein (protein, UniProt Q9NP55 20-256, looked up)
BPI fold-containing family A …: QFGGLPVPLDQTLPLNVNPALPLSPTGLAGSLTNALSNGLLSGGLLGILENLPLLDILKPGGGTSGGLLGGLLGKVTSVIPGLNNIIDIKVTDPQLLELGLVQSPDGHRLYVTIPLGIKLQVNTPLVGASLLRLAVKLDITAEILAVRDKQERIHLVLGDCTHSPGSLQISLLDGLGPLPIQGLLDSLTGILNKVLPELVQGNVCPLVNEVLRGLDITLVHDIVNMLIHGLQFVIKV
Regarding B1, the antimicrobial activity entry in data set [11] and in data set [12] was “significant antimicrobial activity” throughout.
